Patent US7736909B2, “Methods and compositions comprising capture agents” (Board of Regents, the University of Texas System, priority 2003, dated 2010)
Residues, ends and D or L forms follow the SMILES beside them.

Target: T1, His6Gal80 (Saccharomyces cerevisiae, UniProt P04387)
T1 construct: His6 (N); made in house; host or cells: E. coli
T1 sequence (P04387 1-435): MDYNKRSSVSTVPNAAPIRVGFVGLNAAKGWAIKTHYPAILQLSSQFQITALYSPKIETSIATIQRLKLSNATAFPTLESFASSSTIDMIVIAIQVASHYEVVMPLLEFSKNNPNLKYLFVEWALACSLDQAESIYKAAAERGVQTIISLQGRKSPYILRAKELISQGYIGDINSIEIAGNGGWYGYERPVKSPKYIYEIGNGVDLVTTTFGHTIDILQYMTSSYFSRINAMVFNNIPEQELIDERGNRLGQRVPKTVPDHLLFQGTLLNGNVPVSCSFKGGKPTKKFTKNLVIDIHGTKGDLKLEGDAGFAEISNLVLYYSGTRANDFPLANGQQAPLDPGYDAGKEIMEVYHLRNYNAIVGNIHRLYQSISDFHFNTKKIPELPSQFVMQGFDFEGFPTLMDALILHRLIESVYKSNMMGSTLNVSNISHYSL
Assay: capturing dilute proteins with Tentagel-bound peptide
Assay type: binding
Conditions: peptide on Tentagel
Protocol: Capturing Dilute Proteins. Approximately 0.014 g of Tentagel beads displaying Gal80 binding peptide was blocked with 10% milk overnight at 4° C. The beads were divided equally into 7 tubes and incubated with 500 μL of buffer containing various amounts of His6Gal80 protein (5 to 400 ng) for 2 hours at 4° C. After washing four times with TBST buffer and twice with PBS, gel loading dye was added directly to the beads and the amount of bound His6Gal80 was determined as described above. A second gel containing known amounts of pure His6Gal80 was analyzed simultaneously and was used as a standard to quantitate the amount of His6Gal80 retained on the beads.
Efficient capture of dilute proteins. In all of the above examples, the protein was loaded onto the peptide-coated bead at a relatively high concentration (300 nM) prior to dilution. Since the concentration of most proteins of interest in a biological sample will be lower, it was of interest to evaluate the ability of a Tentagel-bound peptide to capture a dimeric protein from more dilute solutions. […] After washing, the bound protein was detected by boiling the beads in denaturing loading buffer followed by SDS-PAGE/western, blot analysis of the resulting supernatant. […] Further dilution of the protein in this assay format exceeded the sensitivity of the western blot. […]

CSCC[C@H](NC(=O)[C@H](CC(=O)O)NC(=O)[C@H](CCC(N)=O)NC(=O)[C@H](CC(=O)O)NC(=O)[C@@H](N)Cc1ccc(O)cc1)C(=O)N[C@@H](CCC(N)=O)C(=O)N[C@@H](CC(N)=O)C(=O)N[C@@H](CC(N)=O)C(=O)N[C@H](C(=O)N[C@@H](Cc1ccccc1)C(=O)N[C@@H](CC(=O)O)C(=O)N[C@@H](CC(=O)O)C(=O)N[C@@H](CC(C)C)C(=O)N[C@@H](Cc1ccccc1)C(=O)N[C@@H](Cc1c[nH]c2ccccc12)C(=O)N[C@@H](CCCCN)C(=O)N[C@@H](CCC(=O)O)C(=O)NCC(=O)N[C@@H](Cc1c[nH]cn1)C(=O)N[C@@H](CCCNC(=N)N)C(=O)O)[C@@H](C)O [Ga180bp] (H-YDQDMQNNTFDDLFWKEGHR-OH; N-terminus and C-terminus assumed)
dissociation constant of immobilized peptide for Gal80 dimer: sub-nanomolar
